Experimental data reported in PubChem BioAssay AID328 (DTP/NCI, 2004).
Values joined by “and” are separate entries in the source; they are usually repeats but may differ in a detail not shown here. Equal entries are not always repeated. Inconclusive results and toxic doses are left out.

Tested on: BDF1 mice, P388 leukemia ip, median survival T/C
Test: NCI In Vivo Anticancer Drug Screen. Data for tumor model P388 Leukemia (intraperitoneal) in B6D2F1 (BDF1) mice
Settings: endpoint: median survival time, higher = longer survival
Procedure, shortened: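 Steps: implant the tumour, treat one group with compound and another with vehicle, record survival, then divide treated by control.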

With `COC(=O)C[C@](O)(CCCC(C)(C)O)C(=O)O[C@@H]1C(OC)=C[C@]23CCCN2CCc2cc4c(cc2[C@H]13)OCO4` the T/C (dose: 0.06 mg/kg/injection, schedule: Q01DX010 (ip), vehicle: saline) was 154 % of control, the T/C (dose: 0.13 mg/kg/injection, schedule: Q01DX010 (ip), vehicle: saline) was 172 % of control and the T/C (dose: 0.25 mg/kg/injection, schedule: Q01DX009 (ip), vehicle: acid diluted with saline) was 180 % of control. The T/C (dose: 0.25 mg/kg/injection, schedule: Q01DX009 (ip), vehicle: water) was 233 % of control and 244 % of control, the T/C (dose: 0.25 mg/kg/injection, schedule: Q01DX010 (ip), vehicle: saline) was 181 % of control and the T/C (dose: 0.25 mg/kg/injection, schedule: Q03HX016 (ip), vehicle: acid diluted with saline) was 160 % of control. The T/C (dose: 0.5 mg/kg/injection, schedule: Q01DX006 (iv), vehicle: acid diluted with saline) was 115 % of control, the T/C (dose: 0.5 mg/kg/injection, schedule: Q01DX009 (ip), vehicle: acid diluted with saline) was 190 % of control and the T/C (dose: 0.5 mg/kg/injection, schedule: Q01DX009 (ip), vehicle: saline) was 240 % of control and 100 % of control. For the same compound, the T/C (dose: 0.5 mg/kg/injection, schedule: Q01DX009 (ip), vehicle: water) was 272 % of control and 300 % of control, the T/C (dose: 0.5 mg/kg/injection, schedule: Q01DX009 (oral), vehicle: acid diluted with saline) was 115 % of control and the T/C (dose: 0.5 mg/kg/injection, schedule: Q01DX009 (oral), vehicle: saline) was 155 % of control. The T/C (dose: 0.5 mg/kg/injection, schedule: Q01DX009 (sc), vehicle: saline) was 105 % of control, the T/C (dose: 0.5 mg/kg/injection, schedule: Q01DX010 (ip), vehicle: saline) was 245 % of control and 215 % of control and the T/C (dose: 0.5 mg/kg/injection, schedule: Q03HX016 (ip), vehicle: acid diluted with saline) was 180 % of control. For the same compound, the T/C (dose: 1.0 mg/kg/injection, schedule: Q01DX006 (iv), vehicle: acid diluted with saline) was 160 % of control, the T/C (dose: 1.0 mg/kg/injection, schedule: Q01DX009 (ip), vehicle: acid diluted with saline) was 225 % of control and 218 % of control and the T/C (dose: 1.0 mg/kg/injection, schedule: Q01DX009 (ip), vehicle: saline) was 245 % of control and 100 % of control. The T/C (dose: 1.0 mg/kg/injection, schedule: Q01DX009 (ip), vehicle: water) was 327 % of control and 338 % of control, the T/C (dose: 1.0 mg/kg/injection, schedule: Q01DX009 (oral), vehicle: acid diluted with saline) was 115 % of control and the T/C (dose: 1.0 mg/kg/injection, schedule: Q01DX009 (oral), vehicle: saline) was 240 % of control. For the same compound, the T/C (dose: 1.0 mg/kg/injection, schedule: Q01DX009 (sc), vehicle: acid diluted with saline) was 170 % of control, the T/C (dose: 1.0 mg/kg/injection, schedule: Q01DX010 (ip), vehicle: saline) was 120 % of control and the T/C (dose: 1.0 mg/kg/injection, schedule: Q03HX008 (ip), vehicle: acid diluted with saline) was 150 % of control. For the same compound, the T/C (dose: 1.0 mg/kg/injection, schedule: Q03HX016 (ip), vehicle: acid diluted with saline) was 100 % of control, the T/C (dose: 2.0 mg/kg/injection, schedule: Q01DX001 (ip), vehicle: acid diluted with saline) was 120 % of control and the T/C (dose: 2.0 mg/kg/injection, schedule: Q01DX001 (iv), vehicle: acid diluted with saline) was 110 % of control. The T/C (dose: 2.0 mg/kg/injection, schedule: Q01DX001 (oral), vehicle: acid diluted with saline) was 110 % of control, the T/C (dose: 2.0 mg/kg/injection, schedule: Q01DX001 (sc), vehicle: acid diluted with saline) was 110 % of control and the T/C (dose: 2.0 mg/kg/injection, schedule: Q01DX006 (iv), vehicle: acid diluted with saline) was 200 % of control. For the same compound, the T/C (dose: 2.0 mg/kg/injection, schedule: Q01DX009 (ip), vehicle: acid diluted with saline) was 240 % of control and 254 % of control, the T/C (dose: 2.0 mg/kg/injection, schedule: Q01DX009 (ip), vehicle: water) was 88 % of control and the T/C (dose: 2.0 mg/kg/injection, schedule: Q01DX009 (sc), vehicle: acid diluted with saline) was 235 % of control. For the same compound, the T/C (dose: 2.0 mg/kg/injection, schedule: Q01DX009 (sc), vehicle: saline) was 205 % of control, the T/C (dose: 2.0 mg/kg/injection, schedule: Q04DX003 (ip), vehicle: acid diluted with saline) was 155 % of control and 168 % of control and 170 % of control and the T/C (dose: 2.0 mg/kg/injection, schedule: Q04DX003 (ip), vehicle: saline) was 173 % of control. The T/C (dose: 3.33 mg/kg/injection, schedule: Q04DX003 (ip), vehicle: acid diluted with saline) was 112 % of control, the T/C (dose: 4.0 mg/kg/injection, schedule: Q01DX001 (ip), vehicle: acid diluted with saline) was 115 % of control and the T/C (dose: 4.0 mg/kg/injection, schedule: Q01DX001 (iv), vehicle: acid diluted with saline) was 110 % of control. For the same compound, the T/C (dose: 4.0 mg/kg/injection, schedule: Q01DX001 (oral), vehicle: acid diluted with saline) was 110 % of control, the T/C (dose: 4.0 mg/kg/injection, schedule: Q01DX001 (sc), vehicle: acid diluted with saline) was 120 % of control and the T/C (dose: 4.0 mg/kg/injection, schedule: Q01DX006 (iv), vehicle: acid diluted with saline) was 120 % of control. For the same compound, the T/C (dose: 4.0 mg/kg/injection, schedule: Q01DX009 (ip), vehicle: acid diluted with saline) was 190 % of control, the T/C (dose: 4.0 mg/kg/injection, schedule: Q01DX009 (ip), vehicle: saline) was 100 % of control and the T/C (dose: 4.0 mg/kg/injection, schedule: Q01DX009 (sc), vehicle: saline) was 115 % of control. For the same compound, the T/C (dose: 4.0 mg/kg/injection, schedule: Q04DX003 (ip), vehicle: acid diluted with saline) was 110 % of control, the T/C (dose: 8.0 mg/kg/injection, schedule: Q01DX009 (ip), vehicle: saline) was 104 % of control and the T/C (dose: 62.5 micrograms/kg/injection, schedule: Q01DX009 (ip), vehicle: saline) was 154 % of control. For the same compound, the T/C (dose: 125.0 micrograms/kg/injection, schedule: Q01DX009 (ip), vehicle: saline) was 154 % of control, the T/C (dose: 125.0 micrograms/kg/injection, schedule: Q03HX024 (ip), vehicle: acid diluted with saline) was 170 % of control and the T/C (dose: 250.0 micrograms/kg/injection, schedule: Q01DX009 (ip), vehicle: saline) was 163 % of control. The T/C (dose: 250.0 micrograms/kg/injection, schedule: Q03HX024 (ip), vehicle: acid diluted with saline) was 190 % of control, the T/C (dose: 500.0 micrograms/kg/injection, schedule: Q01DX009 (ip), vehicle: saline) was 190 % of control and the T/C (dose: 500.0 micrograms/kg/injection, schedule: Q03HX024 (ip), vehicle: acid diluted with saline) was 215 % of control. For the same compound, the T/C (dose: 1000.0 micrograms/kg/injection, schedule: Q01DX009 (ip), vehicle: saline) was 213 % of control.
